The values that follow come from patent US8846917B2, “Compounds useful as inhibitors of ATR kinase” (Vertex Pharmaceuticals Incorporated, priority 2011, dated 2014).

This assay deals with full-length ATR (Homo sapiens (Human), UniProt Q13535). Briefly: ATR Inhibition Assay (radioactive-phosphate incorporation). The format is biochemical. Particulars: Ki(app); 10 μM ATP, 800 μM target peptide, 5 nM full-length ATR, 25° C. How it is done: Compounds were screened for their ability to inhibit ATR kinase using a radioactive-phosphate incorporation assay. Assays were carried out in a mixture of 50 mM Tris/HCl (pH 7.5), 10 mM MgCl2 and 1 mM DTT. […] Assays were carried out at 25° C. in the presence of 5 nM full-length ATR. An assay stock buffer solution was prepared containing all of the reagents listed above, with the exception of ATP and the test compound of interest. […] The plate was pre-incubated for 10 minutes at 25° C. and the reaction initiated by addition of 15 μL [γ-33P]ATP (final concentration 10 μM). The reaction was stopped after 24 hours by the addition of 30 μL 0.1M phosphoric acid containing 2 mM ATP. A multiscreen phosphocellulose filter 96-well plate (Millipore, Cat no. MAPHN0B50) was pretreated with 100 μL 0.2M phosphoric acid prior to the addition of 45 μL of the stopped assay mixture. The plate was washed with 5×200 μL 0.2M phosphoric acid. After drying, 100 μL Optiphase ‘SuperMix’ liquid scintillation cocktail (Perkin Elmer) was added to the well prior to scintillation counting (1450 Microbeta Liquid Scintillation Counter, Wallac). After removing mean background values for all of the data points, Ki(app) data were calculated from non-linear regression analysis of the initial rate data using the Prism software package (GraphPad Prism version 3.0cx for Macintosh, GraphPad Software, San Diego Calif., USA).
Chain of full-length ATR (Q13535 whole entry): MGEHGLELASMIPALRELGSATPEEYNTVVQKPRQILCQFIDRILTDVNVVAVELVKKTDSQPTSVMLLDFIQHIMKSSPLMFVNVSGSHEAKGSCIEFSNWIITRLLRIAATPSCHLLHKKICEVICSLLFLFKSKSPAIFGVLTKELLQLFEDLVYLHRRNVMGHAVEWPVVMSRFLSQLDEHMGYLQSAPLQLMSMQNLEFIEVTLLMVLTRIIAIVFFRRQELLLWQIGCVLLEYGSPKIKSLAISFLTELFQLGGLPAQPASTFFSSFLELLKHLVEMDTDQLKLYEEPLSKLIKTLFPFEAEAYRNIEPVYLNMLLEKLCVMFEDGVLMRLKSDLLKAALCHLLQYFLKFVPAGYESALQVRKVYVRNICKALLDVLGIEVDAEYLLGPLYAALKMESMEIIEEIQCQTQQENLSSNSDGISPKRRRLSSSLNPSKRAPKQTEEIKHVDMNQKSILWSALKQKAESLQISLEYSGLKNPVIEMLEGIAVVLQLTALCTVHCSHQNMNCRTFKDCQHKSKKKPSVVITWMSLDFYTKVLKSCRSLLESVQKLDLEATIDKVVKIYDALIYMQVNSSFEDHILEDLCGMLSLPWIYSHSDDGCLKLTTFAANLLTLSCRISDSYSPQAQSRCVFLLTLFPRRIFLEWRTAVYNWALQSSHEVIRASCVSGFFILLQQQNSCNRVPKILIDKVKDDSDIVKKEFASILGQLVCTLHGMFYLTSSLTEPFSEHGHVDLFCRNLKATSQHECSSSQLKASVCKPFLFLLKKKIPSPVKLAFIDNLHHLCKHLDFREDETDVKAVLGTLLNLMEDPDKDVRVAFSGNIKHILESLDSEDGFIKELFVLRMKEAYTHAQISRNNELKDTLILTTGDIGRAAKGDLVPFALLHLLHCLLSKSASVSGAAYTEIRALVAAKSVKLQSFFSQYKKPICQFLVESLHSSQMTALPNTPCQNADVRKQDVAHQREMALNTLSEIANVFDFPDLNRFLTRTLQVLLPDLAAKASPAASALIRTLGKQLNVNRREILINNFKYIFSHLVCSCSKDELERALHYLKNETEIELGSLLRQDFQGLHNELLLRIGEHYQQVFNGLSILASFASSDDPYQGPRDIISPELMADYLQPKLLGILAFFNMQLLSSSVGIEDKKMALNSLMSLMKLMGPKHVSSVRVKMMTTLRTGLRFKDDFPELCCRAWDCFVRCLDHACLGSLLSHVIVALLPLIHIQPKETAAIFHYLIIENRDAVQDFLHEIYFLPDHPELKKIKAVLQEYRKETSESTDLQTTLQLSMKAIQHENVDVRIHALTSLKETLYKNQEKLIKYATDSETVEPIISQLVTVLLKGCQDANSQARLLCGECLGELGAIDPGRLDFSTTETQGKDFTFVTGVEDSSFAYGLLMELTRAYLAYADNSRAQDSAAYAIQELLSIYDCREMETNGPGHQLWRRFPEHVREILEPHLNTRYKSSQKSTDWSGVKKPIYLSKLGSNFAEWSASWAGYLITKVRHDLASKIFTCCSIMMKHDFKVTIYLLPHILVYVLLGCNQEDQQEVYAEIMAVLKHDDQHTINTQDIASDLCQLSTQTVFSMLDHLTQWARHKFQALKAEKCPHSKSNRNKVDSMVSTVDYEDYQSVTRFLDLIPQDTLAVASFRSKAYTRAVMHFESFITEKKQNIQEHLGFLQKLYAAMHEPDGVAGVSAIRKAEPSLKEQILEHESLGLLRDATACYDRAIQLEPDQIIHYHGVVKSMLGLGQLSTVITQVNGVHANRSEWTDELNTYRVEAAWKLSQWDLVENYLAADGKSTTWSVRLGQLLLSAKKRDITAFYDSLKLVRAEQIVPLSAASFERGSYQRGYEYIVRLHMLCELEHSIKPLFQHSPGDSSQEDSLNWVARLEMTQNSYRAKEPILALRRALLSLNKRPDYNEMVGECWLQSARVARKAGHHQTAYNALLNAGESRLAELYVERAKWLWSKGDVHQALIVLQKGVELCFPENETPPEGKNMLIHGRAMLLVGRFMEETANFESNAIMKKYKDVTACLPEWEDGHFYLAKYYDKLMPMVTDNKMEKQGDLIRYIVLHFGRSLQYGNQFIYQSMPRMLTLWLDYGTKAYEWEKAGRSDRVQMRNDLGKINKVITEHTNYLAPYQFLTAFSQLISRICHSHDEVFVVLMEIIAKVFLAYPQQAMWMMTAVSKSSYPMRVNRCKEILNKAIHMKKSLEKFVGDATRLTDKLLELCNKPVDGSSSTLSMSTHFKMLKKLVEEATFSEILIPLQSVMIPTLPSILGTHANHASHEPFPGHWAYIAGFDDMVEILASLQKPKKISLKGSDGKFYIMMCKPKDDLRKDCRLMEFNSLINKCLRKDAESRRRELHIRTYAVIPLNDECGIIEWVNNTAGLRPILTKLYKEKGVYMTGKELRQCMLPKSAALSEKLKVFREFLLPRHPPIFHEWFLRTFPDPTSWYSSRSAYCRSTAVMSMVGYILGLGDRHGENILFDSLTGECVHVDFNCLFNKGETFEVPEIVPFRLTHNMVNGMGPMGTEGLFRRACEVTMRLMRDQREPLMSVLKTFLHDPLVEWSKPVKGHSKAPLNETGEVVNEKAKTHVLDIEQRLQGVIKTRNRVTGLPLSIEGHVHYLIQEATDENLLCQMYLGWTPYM

Molecules are shown by their SMILES.

Turning to `CC(C)S(=O)(=O)c1ccc(-c2cnc(N)c(-c3cn(-c4ccccc4)nn3)n2)cc1` [Compound I-1, 5-(4-(isopropylsulfonyl)phenyl)-3-(1-phenyl-1H-1,2,3-triazol-4-yl)pyrazin-2-amine], the Ki was found to be 6 nM.
